Literature values in patent US6211219A, “Aminocyclohexane derivatives as 5-HT receptor agonists” (Merck Sharp & Dohme Ltd., priority 1996, dated 2001).

Columns and labels:
[1] = system: human 5-HT1Dα and 5-HT1Dβ receptor subtypes; conditions: cf. WO-A-91/17174, Table 1
humans = conditions: therapeutic doses

- discrimination between the human 5-HT1Dα and 5-HT1Dβ receptor subtypes [1]: barely discriminates
SMILES: CNS(=O)(=O)Cc1ccc2[nH]cc(CCN(C)C)c2c1 [sumatriptan]
- adverse cardiovascular events on administration to humans (humans): certain adverse cardiovascular events
